Structures are written as SMILES. ≈ marks a conversion by molar mass, not a printed value. Where only a bound is given, the exact number is not on record here.

We go through 1 compound from ChEMBL document CHEMBL2407054, “Synthesis and antimicrobial activity of imidazole and pyridine appended cholestane-based conjugates” (2013).

One assay concerns Bacillus subtilis. Kind of assay: Antibacterial activity against Bacillus subtilis ATCC 6633 by M07-A9 CLSI method. The assay is classed as functional.
A further assay has as its system Pseudomonas aeruginosa. Kind of assay: Antibacterial activity against Pseudomonas aeruginosa 6065Y by M07-A9 CLSI method. It counts as functional.
The subject of a further assay is Bacillus licheniformis. The assay is described as follows: Antibacterial activity against Bacillus licheniformis EMR by M07-A9 CLSI method. The assay is classed as functional.
The subject of assay [1] is Staphylococcus aureus. Kind of assay: Antibacterial activity against Staphylococcus aureus Giorgio by M07-A9 CLSI method. The assay is classed as functional.
Another assay deals with Klebsiella pneumoniae. Kind of assay: Antibacterial activity against Klebsiella pneumoniae 2011E by M07-A9 CLSI method. It counts as functional.
The subject of a further assay is Bacillus cereus. Kind of assay: Antibacterial activity against Bacillus cereus ATCC 27348 by M07-A9 CLSI method. The assay is classed as functional.
Assay [2] concerns Staphylococcus aureus. Kind of assay: Antibacterial activity against Staphylococcus aureus 241 by M07-A9 CLSI method. It counts as functional.
The subject of assay [3] is Staphylococcus epidermidis. The assay is described as follows: Antibacterial activity against Staphylococcus epidermidis 887E by M07-A9 CLSI method. It counts as functional.
The next assay deals with Proteus vulgaris. Kind of assay: Antibacterial activity against Proteus vulgaris 6059 by M07-A9 CLSI method. It counts as functional.
In assay [4] the test system is Staphylococcus aureus. Kind of assay: Antibacterial activity against Staphylococcus aureus 77 by M07-A9 CLSI method. It counts as functional.
The next assay deals with Salmonella typhimurium. The assay is described as follows: Antibacterial activity against Salmonella typhimurium ATCC 13311 by M07-A9 CLSI method. The settings on record: Salmonella enterica. It counts as functional, Salmonella enterica subsp. enterica serovar Typhimurium.
The subject of another assay is Escherichia coli. The assay is described as follows: Antibacterial activity against Escherichia coli ATCC 25922 by M07-A9 CLSI method. It counts as functional.
Assay [5] deals with Staphylococcus aureus. Kind of assay: Antibacterial activity against Staphylococcus aureus ATCC 6538P by M07-A9 CLSI method. It counts as functional.
In a further assay the test system is Kocuria rhizophila. Kind of assay: Antibacterial activity against Micrococcus luteus ATCC 9341 by M07-A9 CLSI method. It counts as functional.
Assay [6] has as its system Staphylococcus aureus. Kind of assay: Antibacterial activity against Staphylococcus aureus ATCC 25923 by M07-A9 CLSI method. It counts as functional.
In the next assay the test system is Klebsiella aerogenes. Kind of assay: Antibacterial activity against Klebsiella aerogenes (SHV-1) 1976E by M07-A9 CLSI method. The assay is classed as functional.
A further assay has as its system Enterococcus faecalis. Kind of assay: Antibacterial activity against Enterococcus faecalis ATCC 29212 by M07-A9 CLSI method. It counts as functional.

As for `CC(C)CCC[C@@H](C)[C@H]1CC[C@H]2[C@@H]3[C@H](NCCCn4ccnc4)C[C@H]4C[C@H](NCCCn5ccnc5)CC[C@]4(C)[C@H]3CC[C@]12C`, the MIC with Bacillus subtilis is 4 µg/mL (≈ 6.46 µM); with Pseudomonas aeruginosa, above 32 µg/mL; with Bacillus licheniformis, 4 µg/mL (≈ 6.46 µM); against Staphylococcus aureus [1] it was 4 µg/mL (≈ 6.46 µM); in the assay on Klebsiella pneumoniae, above 32 µg/mL; with Bacillus cereus, 8 µg/mL (≈ 12.9 µM). Moreover, the MIC against Staphylococcus aureus [2] was 4 µg/mL (≈ 6.46 µM); in assay [3], 4 µg/mL (≈ 6.46 µM); in the assay with Proteus vulgaris it was above 32 µg/mL; against Staphylococcus aureus [4], 4 µg/mL (≈ 6.46 µM); in the assay on Salmonella typhimurium, above 32 µg/mL; against Escherichia coli, above 32 µg/mL. In addition, the MIC against Staphylococcus aureus [5] was 2 µg/mL (≈ 3.23 µM); with Kocuria rhizophila it was 4 µg/mL (≈ 6.46 µM); in the assay with Staphylococcus aureus [6] it was 2 µg/mL (≈ 3.23 µM); in the assay on Klebsiella aerogenes it was above 32 µg/mL; in the assay with Enterococcus faecalis, 4 µg/mL (≈ 6.46 µM).
